Measurements taken from patent US8124593B2, “Methods of treatment using sapacitabine” (Cyclacel Limited, priority 2007, dated 2012).

Columns and labels:
CTCL = details: cited from earlier work
NSCLC = details: 10 mg/m^2 intravenously over 30 minutes every three weeks; cited from earlier work
P388 leukemia = details: mouse P388 leukemia model; cited from earlier work
[1] = single-dose in rodents, repeat dose up to 3 months in mice and dogs; cited from earlier work
[2] = tested on: refractory solid tumours or lymphomas; test: Open label dose escalation study of oral sapacitabine b.i.d. for 7 or 14 consecutive days every 21 days; format: in vivo
Method: The study was conducted at the Institute for Drug Development, Cancer Therapy and Research Center (CTRC) in San Antonio, Tex. and Fox Chase Cancer Center in Philadelphia, Pa. The primary objective of the study was to evaluate the safety profile of sapacitabine administered twice daily for 14 consecutive days or 7 consecutive days every 21 days.
The study was an open label dose escalation study of oral sapacitabine administered twice daily (b.i.d.) for 7 or 14 consecutive days every 21 days. One treatment cycle was 3 weeks. At least 3 patients were enrolled at each dose level. Dose escalation proceeded if ≦⅓ or ≦ 2/6 patients experienced dose limiting toxicity (DLT) during the first treatment cycle.

[3] = tested on: solid tumours or lymphomas; details: 14 days every 21 days, body surface area basis; cited from earlier work
variety of cancers = details: phase I data; cited from earlier work
colon cancer = details: model of colon cancer; cited from earlier work
[4] = tested on: advanced leukemias or myelodysplastic syndromes; test: Phase I study, b.i.d. x 7 days orally every 21 days; format: in vivo
Method: The Phase I study was conducted at M.D. Anderson Cancer Center (UTMDACC) in Houston, Tex. The primary objective was to define the MTD of a dosing schedule, b.i.d.×7 days orally every 21 days.
Eligible patients had relapsed/refractory leukemias or MDS, or untreated disease if not willing to proceed with conventional systemic chemotherapy, adequate organ functions and performance status of 0-2. At least 3 patients were enrolled at each dose level. The MTD was the highest dose level at which ≦ 2/6 patients experienced a DLT during the first treatment cycle.

[5] = tested on: poorly differentiated gastric adenocarcinoma; details: human xenografts; cited from earlier work
cytidine deaminase = cytidine deaminase (Homo sapiens, UniProt P32320); details: compared with ara-C; cited from earlier work
[6] = 7-day schedule every 21 days, oral
[7] = relapsed or refractory AML and MDS

cytidine deaminase, sequence (P32320 whole entry, species assumed): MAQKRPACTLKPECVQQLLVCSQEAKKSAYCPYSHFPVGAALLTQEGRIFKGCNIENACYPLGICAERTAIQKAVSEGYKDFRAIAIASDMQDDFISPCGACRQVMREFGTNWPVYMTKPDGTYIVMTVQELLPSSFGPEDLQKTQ

For `Nc1ccn([C@@H]2O[C@H](CO)[C@@H](O)C2(F)F)c(=O)n1` [Gemcitabine, gemcitabine], the response rate (CTCL) is given as 60-70%.

For `Nc1ccn([C@@H]2CO[C@H](CO)O2)c(=O)n1` [troxacitabine], the “activity in NSCLC” value (NSCLC) is given as “little activity”.

For `CCCCCCCCCCCCCCCC(=O)Nc1ccn([C@@H]2O[C@H](CO)[C@@H](O)[C@@H]2C#N)c(=O)n1` [sapacitabine, 1-(2-C-cyano-2-deoxy-β-D-arabino-pentofuranosyl)-N^4-palmitoyl cytosine], the “antitumour activity, comparison” value (P388 leukemia) is given as “much more potent antitumour activity than 5′-DFUR and gemcitabine”, the major toxicities [1] is given as “hematopoietic, gastrointestinal, and testicular” and the MTD [2, 6] is given as 100 mg b.i.d. The “RD (recommended dose)” value [2, 6] was 75 mg b.i.d, the dose limiting toxicity ([2]; 7 and 14 day schedules, 16 patients) was “reversible myelosuppression” and the “best response by investigator assessment” value ([2]; 7 day schedule, squamous cell carcinoma) was “stable disease in one patient”. The recommended dose ([2]; 14 day schedule every 21 days, oral) was 50 mg b.i.d, the “non-hematological toxicities, severity” value ([2]; in vivo) was “mostly mild to moderate” and the recommended dose [3] was 33 mg/m^2. For the same molecule, the dose limiting toxicity (variety of cancers) was “myelosuppression”, the tolerability (variety of cancers) was “well tolerated” and the anticancer activity (colon cancer) was “strong anticancer activity”. For the same molecule, the “increasing survival and preventing spread of metastases to the liver, comparison” value (colon cancer) was “superior to either gemcitabine or 5-FU”, the MTD [4, 6] was 375 mg b.i.d and the recommended dose [4, 6] was 325 mg b.i.d. For the same molecule, the “patients with reduction in bone marrow blast counts to <5%, AML” value ([4]; AML subgroup of responders) was 9 patients, the “patients with reduction in bone marrow blast counts to <5%, MDS” value ([4]; MDS subgroup of responders) was 2 patients and the “patients with reduction in bone marrow blast counts to <5%” value ([4]; all evaluable patients) was 11 patients of 42 evaluable. The “common non-hematologic adverse events, intensity” value ([4]; all grades, regardless of causality) was “mild to moderate in intensity”, the “CRs with incomplete recovery of platelets” value ([4]; in vivo) was 2 patients and the “complete remissions (CRs)” value ([4]; in vivo) was 2 patients. The “deaths from complications of neutropenic colitis” value ([4]; in vivo) was “One”, the “predominant DLT” value ([4]; in vivo) was “gastrointestinal toxicity” and the “DLT: abdominal pain/small bowel obstruction” value ([4]; number of patients) was 1 n. For the same molecule, the “DLT: diarrhea” value ([4]; number of patients) was 3 n, the “DLT: neutropenic colitis” value ([4]; number of patients) was 2 n and the antileukemic activity [4, 7] was “promising antileukemic activity”. For the same molecule, the tolerability [4, 7] was “well tolerated” and the “antitumour activity, comparison” value [5] was “much more potent antitumour activity than 5′-DFUR and gemcitabine”.

For `N#C[C@H]1[C@H](O)[C@@H](CO)O[C@H]1n1ccc(N)nc1=O` [CNDAC, 2′-C-Cyano-2′-deoxy-β-D-arabino-pentafuranosylcytosine], the “substrate of cytidine deaminase” value (cytidine deaminase) is given as “weak substrate”.
